According to ChEMBL document CHEMBL3638861, “Phenyl-substituted 2-imino-3-methyl pyrrolo pyrimidinone compounds as BACE-1 inhibitors, compositions, and their use” (2013):

Molecular target: Beta-secretase 1 (Homo sapiens, UniProt P56817)
Assay: Time-Resolved FRET Assay: A homogeneous time-resolved FRET assay was used to determine IC50 values for inhibitors of the soluble human BACE1 catalytic domain. The assay monitored the increase of 620nm fluorescence that resulted from BACE1 cleavage of an APPswedish APPswe mutant peptide FRET substrate (QSY7-EISEVNLDAEFC-Europium-amide).

Beta-secretase 1, sequence (P56817 whole entry, the tested form may be a part): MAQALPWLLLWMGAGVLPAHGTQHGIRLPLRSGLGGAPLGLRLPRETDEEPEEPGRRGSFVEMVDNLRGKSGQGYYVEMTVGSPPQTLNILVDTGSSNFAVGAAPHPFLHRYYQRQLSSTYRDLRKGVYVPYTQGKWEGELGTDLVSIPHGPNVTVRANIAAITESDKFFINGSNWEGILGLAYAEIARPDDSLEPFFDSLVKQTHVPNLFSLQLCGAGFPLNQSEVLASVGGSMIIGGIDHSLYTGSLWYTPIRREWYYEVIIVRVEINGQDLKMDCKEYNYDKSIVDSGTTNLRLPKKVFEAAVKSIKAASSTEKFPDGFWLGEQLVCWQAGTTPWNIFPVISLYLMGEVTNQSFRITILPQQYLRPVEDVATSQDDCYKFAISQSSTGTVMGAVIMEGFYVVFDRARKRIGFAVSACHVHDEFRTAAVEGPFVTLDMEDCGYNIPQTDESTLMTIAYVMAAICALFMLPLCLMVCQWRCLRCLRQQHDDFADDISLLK

**Q.** How did the IC50 turn out when `COc1nc(N2C[C@H]3C(=O)N(C)C(=N)N[C@@]3(c3cc(F)ccc3Cl)C2)nc(C)c1F` was run?
**A.** The IC50 was 42 nM.

**Q.** And the Ki?
**A.** The Ki was 8.9 nM.
